Measurements as given in article PMC6902473 (Clinical Epigenetics, 2019).
Where “and” joins values, the source holds several entries; their conditions need not be identical. Equal entries are not always repeated.

Test: Plasma pharmacokinetics of vorinostat after oral administration (non-compartmental analysis)
Text: The assays were validated according to the common FDA and EMA guidelines on bioanalytical method validation.

[1] = 530 mg/m2/d oral, plasma, maximum of 3 values
[2] = 530 mg/m2/d oral, plasma, minimum of 3 values

With `O=C(CCCCCCC(=O)Nc1ccccc1)NO` [vorinostat] the “Clearance, Maximum” value [1] was 678 L/h, the “Cmax, Maximum” value [1] was 629 ng/mL and the “Clearance, Minimum” value [2] was 241 L/h. The “Cmax, Minimum” value [2] was 451 ng/mL, the “Vz, Minimum” value [2] was 508 L and the t1/2 (dose level 130 mg/m2/d, mean) was 2.16 h. It also gave a t1/2 (dose level 130 mg/m2/d, median) of 2.16 h, a t1/2 (dose level 180 mg/m2/d, mean) of 2.22 h and a t1/2 (dose level 330 mg/m2/d, mean) of 2.13 h. For the same molecule, the AUC(0-t) (human, in vivo, 130 mg/m2) was 1140 ng·h/mL, the Clearance (human, in vivo, 130 mg/m2) was 167 L/h and the Vz (human, in vivo, 130 mg/m2) was 563 L. The AUC(0-t) (human, in vivo, 130 mg/m2, AUClast) was 4.32 µM·h and 970 ng·h/mL, the Clearance (human, in vivo, 130 mg/m2, Clearance) was 108 L/h and the Cmax (human, in vivo, 130 mg/m2, Cmax) was 1.02 µM and 269 ng/mL. The Vd (human, in vivo, 130 mg/m2, Vz) was 336 L, the Clearance (human, in vivo, 180 mg/m2) was 225 L/h and the Tmax (human, in vivo, 180 mg/m2) was 2.39 h. The Vz (human, in vivo, 180 mg/m2) was 681 L, the t1/2 (human, in vivo, 180 mg/m2) was 1.93 h and the AUC(0-t) (human, in vivo, 180 mg/m2, AUClast) was 3.75 µM·h and 992 ng·h/mL. For the same molecule, the Clearance (human, in vivo, 180 mg/m2, Clearance) was 182 L/h, the Cmax (human, in vivo, 180 mg/m2, Cmax) was 1.06 µM and 281 ng/mL and the Tmax (human, in vivo, 180 mg/m2, Tmax) was 1.5 h. The Vd (human, in vivo, 180 mg/m2, Vz) was 490 L, the Clearance (human, in vivo, 214 mg/m2) was 399 L/h and the AUC(0-t) (human, in vivo, 214 mg/m2, AUClast) was 2.52 µM·h and 666 ng·h/mL. The Clearance (human, in vivo, 214 mg/m2, Clearance) was 399 L/h, the Cmax (human, in vivo, 214 mg/m2, Cmax) was 1.29 µM and 341 ng/mL and the half-life (human, in vivo, 214 mg/m2, t1/2) was 1.12 h. It also gave an AUCtotal (human, in vivo, 230 mg/m2) of 1310 ng·h/mL, a Clearance (human, in vivo, 230 mg/m2) of 257 L/h and a Vz (human, in vivo, 230 mg/m2) of 640 L. The AUC(0-t) (human, in vivo, 230 mg/m2, AUClast) was 4.89 µM·h and 1290 ng·h/mL, the Clearance (human, in vivo, 230 mg/m2, Clearance) was 221 L/h and the Cmax (human, in vivo, 230 mg/m2, Cmax) was 1.44 µM and 380 ng/mL. For the same molecule, the Tmax (human, in vivo, 230 mg/m2, Tmax) was 1.5 h, the Vd (human, in vivo, 230 mg/m2, Vz) was 532 L and the half-life (human, in vivo, 230 mg/m2, t1/2) was 1.63 h. The Clearance (human, in vivo, 250 mg/m2) was 189 L/h, the Tmax (human, in vivo, 250 mg/m2) was 1.75 h and the t1/2 (human, in vivo, 250 mg/m2) was 1.48 h. For the same molecule, the AUC(0-t) (human, in vivo, 250 mg/m2, AUClast) was 5.77 µM·h and 1520 ng·h/mL, the Clearance (human, in vivo, 250 mg/m2, Clearance) was 189 L/h and the Tmax (human, in vivo, 250 mg/m2, Tmax) was 1.75 h. The Vd (human, in vivo, 250 mg/m2, Vz) was 398 L, the half-life (human, in vivo, 250 mg/m2, t1/2) was 1.48 h and the AUC(0-t) (human, in vivo, 280 mg/m2) was 4.96 µM·h. The Clearance (human, in vivo, 280 mg/m2) was 195 L/h, the Tmax (human, in vivo, 280 mg/m2) was 2.09 h and the t1/2 (human, in vivo, 280 mg/m2) was 1.83 h. The AUC(0-t) (human, in vivo, 280 mg/m2, AUClast) was 1310 ng·h/mL and 6.33 µM·h, the Clearance (human, in vivo, 280 mg/m2, Clearance) was 207 L/h and the Tmax (human, in vivo, 280 mg/m2, Tmax) was 1.5 h. The half-life (human, in vivo, 280 mg/m2, t1/2) was 1.5 h, the Clearance (human, in vivo, 330 mg/m2) was 149 L/h and the Tmax (human, in vivo, 330 mg/m2) was 2.00 h. For the same molecule, the Vz (human, in vivo, 330 mg/m2) was 427 L, the AUC(0-t) (human, in vivo, 330 mg/m2, AUClast) was 8.06 µM·h and 2130 ng·h/mL and the Clearance (human, in vivo, 330 mg/m2, Clearance) was 126 L/h. The Cmax (human, in vivo, 330 mg/m2, Cmax) was 1.83 µM and 483 ng/mL, the Tmax (human, in vivo, 330 mg/m2, Tmax) was 2.5 h and the Vd (human, in vivo, 330 mg/m2, Vz) was 429 L. The half-life (human, in vivo, 330 mg/m2, t1/2) was 1.89 h, the AUC(0-t) (human, in vivo, 380 mg/m2, AUClast) was 14.2 µM·h and 3750 ng·h/mL and the Cmax (human, in vivo, 380 mg/m2, Cmax) was 3.38 µM and 893 ng/mL. The Tmax (human, in vivo, 380 mg/m2, Tmax) was 4.3 h, the Clearance (human, in vivo, 430 mg/m2) was 174 L/h and the Tmax (human, in vivo, 430 mg/m2) was 1.00 h. The t1/2 (human, in vivo, 430 mg/m2) was 2.49 h, the AUC(0-t) (human, in vivo, 430 mg/m2, AUClast) was 6.39 µM·h and 1690 ng·h/mL and the Clearance (human, in vivo, 430 mg/m2, Clearance) was 174 L/h. The Vd (human, in vivo, 430 mg/m2, Vz) was 661 L, the half-life (human, in vivo, 430 mg/m2, t1/2) was 2.49 h and the Clearance (human, in vivo, 480 mg/m2) was 237 L/h. The AUC(0-t) (human, in vivo, 480 mg/m2, AUClast) was 14.2 µM·h and 3760 ng·h/mL, the Clearance (human, in vivo, 480 mg/m2, Clearance) was 237 L/h and the Cmax (human, in vivo, 480 mg/m2, Cmax) was 4.64 µM and 1230 ng/mL. It also gave a Tmax (human, in vivo, 480 mg/m2, Tmax) of 0.5 h, a Vd (human, in vivo, 480 mg/m2, Vz) of 421 L and a Cmax (human, in vivo, Cmax) greater than 270 ng/mL.
